Consider 4 compounds from patent US11215608B2, “Methods of determining cellular chemosensitivity” (Dana-Farber Cancer Institute, Inc., priority 2006, dated 2022).

In assay [1] the test system is SU-DHL4, SU-DHL6, SU-DHL8, SU-DHL 10. In words: Lymphoma cell line sensitivity to agents. It counts as cell-based. As to conditions: four lymphoma cell lines compared. As to the method:
Only cells that are dependent on BCL-2 for survival are predicted to respond to BCL-2 antagonists like ABT-737. […] To test this, cells were treated with vincristine.

The test system of the next assay is mouse liver mitochondria. In words: Cytochrome c release from mouse liver mitochondria. As to conditions: no tBID, also at 10-fold higher concentrations. It counts as biochemical. As for the experimental part: (§1) Mitochondria were purified from liver and FL5.12cells as previously described (Letai et al., 2002). Mitochondria were purified from leukemia cells and 2B4 cells as previously described for FL5.12 cells. Mitochondria were incubated with treatments for 45 (mouse liver mitochondria) or 35 minutes (FL5.12, 2B4, and leukemic mitochondria). Release of cytochrome c was determined by a comparison of cytochrome c in the pellet and supernatant following treatment, quantitated by ELISA (R&D systems). When results of multiple experiments were averaged, results from solvent-only (DMSO) treatments values were subtracted from each, so that 0 release reflects that observed in solvent-only treatments.
To test if selective binding corresponded to ability of individual BH3 domains to selectively antagonize antiapoptotic function, a purified mitochondrial system was constructed in which the critical apoptosis decision making molecular machinery was reconstituted. […] The multidomain proapoptotic function was provided by the BAK which resides in mouse liver Mitochondria; mouse liver mitochondria contain no detectable BAX protein (Letai et al., 2002). The dominant antiapoptotic function was provided by one of the five different recombinant antiapoptotic proteins used in the binding assays. BH3 peptides provided the sensitizer function.
Furthermore, when the panel of sensitizer BH3 peptides was tested in the presence of the antiapoptotic protein BCL-XL, there was still no cytochrome c release, formally ruling out the possibility that the BH3 peptides were somehow directly converting antiapoptotic proteins to a proapoptotic function (FIG. 2). To induce MOMP and cytochrome c release, there appears to be an absolute requirement for an activator function, here provided by the tBID protein.

In a further assay the test system is SU-DHL6. In words: BH3 profiling, cytochrome c release from lymphoma mitochondria. It counts as biochemical. As to conditions: SU-DHL 6. An excerpt: (§2) BH3 profiling allows for the prediction of response of cancer cells to anti-cancer therapeutics. For the purposes of this application, therapeutics can be divided into those that target anti-apoptotic BCL-2 proteins, and conventional agents. As a model test system, four lymphoma cell lines SU-DHL4, SU-DHL6, SU-DHL8, and SU-DHL 10 were employed. To perform BH3 profiling, the ability of a panel of sensitizer peptides to induce mitochondrial outer membrane permeabilization (MOMP) in mitochondria isolated from the lymphoma cells were tested. […] MOMP was measured by quantifying cytochrome c release by ELISA.
SU-DHL4 and SU-DHL6 a “primed” phenotype, based on the sensitivity to sensitizer BH3 peptides. […] SU-DHL-10 responded poorly to both sensitizer and activator peptides, indicating the loss of the effector arm.

For a further assay, the system named is leukemic mitochondria. The assay is described as follows: Cytochrome c release from BCL-2 dependent leukemia mitochondria. Type of assay: biochemical, mouse. As for the experimental part: as §1
Leukemia prone mice were generated as previously described (Letai, 2004). Mouse experimental protocols conform to the relevant regulatory standards and were approved by the Dana-Farber Cancer Institute Animal Care and Use Committee.
Previous results have described a mouse acute lymphocytic leukemia model in which c-myc is constitutively expressed and human BCL-2 is repressibly expressed. In this model, when BCL-2 transgene expression is eliminated by administration of doxycycline, the leukemic cells undergo apoptosis, resulting in rapid resolution of the leukemia (Letai, 2004). This provides an ideal in vivo model of a BCL-2 dependent cancer. It was hypothesized that dependence on BCL-2 was due to a similar mechanism to that of the IL-3 deprived FL5.12-BCL-2 cells—that is, a death signal was being initiated and carried by an activator BH3 molecule, but BCL-2 was binding it and preventing its interaction with multidomain proapoptotic proteins.
Mitochondria were isolated from leukemia cells and exposed to sensitizer BH3 peptides. Subsequently, cytochrome c release was measured. As an internal control, mitochondria were isolated from liver from the leukemic mice in parallel (FIG. 8A).

Another assay deals with SU-DHL8. The assay is described as follows: BH3 profiling, cytochrome c release from lymphoma mitochondria. It counts as biochemical. As to conditions: SU-DHL-8.
Source text: as §2

The next assay has as its system CLL mitochondria. In words: Cytochrome c release from CLL mitochondria. It counts as biochemical, human. As to conditions: peptides or compounds 100 μM. As for the experimental part:
Alternatively, mitochondria were purified from freshly isolated CLL cells and cell lines by mechanical disruption followed by differential centrifugation, as previously described (Letai et al., 2002). Mitochondrial suspensions were made at 0.5 mg protein/ml, except for the case of ABT-737 and negative control enantiomer treatments, where 0.1 mg/ml was used. Release of cytochrome c was determined by a comparison of cytochrome c in the pellet and supernatant quantitated by ELISA (R&D systems).
CLL mitochondria were incubated with BH3 peptides as well as ABT-737 and negative control enantiomer (FIG. 14). […] This pattern is diagnostic of mitochondrial BCL-2 dependence. […] Since the BH3 peptides in the sensitizer panel lack the ability to directly activate BAX and BAK, these experiments also implicated the presence of an activator molecule constitutively sequestered by BCL-2 in CLL.

The next assay addresses T1, GST-MCL-1 (Homo sapiens, UniProt Q07820).
T1 construct: In each case, the C-terminus transmembrane domain was truncated to maintain solubility in aqueous solution; made in house; host or cells: bacteria (construct a gift of Tilman Oltersdorf)
In words: BIM BH3 displacement by fluorescence polarization. It counts as binding. As to conditions: 25 nM fluorescein-linked BIM BH3, 0.1 uM GST-MCL-1. As for the experimental part:
(§3) Binding assays were performed using fluorescence polarization as previously described (Letai et al., 2002). A minimum of three independent experiments were used to determine each dissociation constant.
(§4) As one test of this hypothesis, the ability of sensitizer peptides to displace tBID from antiapoptotic protein Bcl-w was examined utilizing a GST-pulldown assay. Proteins bound to glutathioneagarose beads were eluted with glutathione and analyzed by Western blot. In FIG. 3A, tBID is displaced from BC1-w by sensitizer BH3 peptides in a pattern that replicates the pattern in FIG. 1D. […] These experiments support the ability of sensitizer BH3 peptides to displace activators from the antiapoptotic binding cleft.
On the technique in general: Fluorescence polarisation rises when a labelled molecule tumbles more slowly, as on binding a larger partner.

The subject of assay [2] is FLAG-MCL-1-transfected 2B4 cells. The assay is described as follows: BH3 peptides electroporated into dexamethasone-treated FLAG-MCL-1 2B4 cells. It counts as cell-based, murine. As to conditions: peptide transfected by electroporation. An excerpt:
Percent killing was ascertained by Annexin-V staining. […] N=3 and the error bars represent the standard deviation.

A further assay concerns the target T2, GST-BCL-2 (Homo sapiens, UniProt P10415).
T2 construct: In each case, the C-terminus transmembrane domain was truncated to maintain solubility in aqueous solution; made in house; host or cells: bacteria
The assay is described as follows: BIM BH3 displacement by fluorescence polarization. It counts as binding. As to conditions: 25 nM fluorescein-linked BIM BH3, 0.5 uM GST-BCL-2. As for the experimental part:
as §3, §4

The test system of the next assay is BAX. In words: BAX oligomerization / activation in mitochondria of IL-3 starved FL5.12-BCL-2 cells. It counts as biochemical, murine. As to conditions: peptides 30 uM, ABT-737 10 uM, 35 minutes. As to the method:
Mitochondria were isolated from wt FL5.12 cells and FL5.12-BCL-2 cells in the presence of IL-3, and from FL5.12-BCL-2 cells following 24 hours of IL-3 deprivation. […] Mitochondrial pellets were subjected to chemical crosslinking as previously described (Letai et al., 2002).
This model predicts that BCL-2 acts upstream of BAX activation by intercepting activator BH3 molecules. To test this prediction, in FIG. 6E, immunoprecipitation was performed with an antibody that recognizes only the activated form of BAX which exposes an N-terminus epitope (Desagher ct al., 1999; Hsu and You le, 1997). wt or BCL-2 expressing FL5.12 cells were exposed to IL-3 withdrawal as indicated.

T2 sequence (P10415 1-218 limits assumed): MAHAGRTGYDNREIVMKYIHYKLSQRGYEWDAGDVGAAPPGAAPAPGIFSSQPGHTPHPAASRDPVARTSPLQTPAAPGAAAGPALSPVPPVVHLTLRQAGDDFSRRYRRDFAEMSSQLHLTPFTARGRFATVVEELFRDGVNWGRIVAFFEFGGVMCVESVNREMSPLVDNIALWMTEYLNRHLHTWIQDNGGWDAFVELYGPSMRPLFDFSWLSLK
T1 sequence (Q07820 1-327): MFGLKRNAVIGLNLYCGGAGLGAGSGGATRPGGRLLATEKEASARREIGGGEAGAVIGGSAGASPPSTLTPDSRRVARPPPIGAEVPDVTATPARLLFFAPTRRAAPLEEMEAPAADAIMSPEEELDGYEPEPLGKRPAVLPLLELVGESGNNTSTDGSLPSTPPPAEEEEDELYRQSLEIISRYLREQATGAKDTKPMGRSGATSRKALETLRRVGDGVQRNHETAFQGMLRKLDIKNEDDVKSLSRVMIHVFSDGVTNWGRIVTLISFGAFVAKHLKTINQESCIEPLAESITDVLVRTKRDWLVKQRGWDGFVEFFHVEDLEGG

Consider `CC[C@]1(O)C[C@H]2CN(CCc3c([nH]c4ccccc34)[C@@](C(=O)OC)(c3cc4c(cc3OC)N(C=O)[C@H]3[C@@](O)(C(=O)OC)[C@H](OC(C)=O)[C@]5(CC)C=CCN6CC[C@]43[C@@H]65)C2)C1` [vincristine], for which the “cell sensitivity to the agent” value in assay [1] is “SU-DHL4 and SU-DHL6 were the most sensitive cell lines”.
For the compound `CC[C@H](C)[C@H](NC(=O)[C@H](CCC(=O)O)NC(=O)[C@H](CCCNC(=N)N)NC(=O)[C@H](C)NC(=O)[C@H](Cc1c[nH]c2ccccc12)NC(=O)[C@H](CCC(N)=O)NC(=O)[C@H](CCC(=O)O)NC(=O)CCCCCNC(=S)Nc1ccc2c(c1)C(=O)OC21c2ccc(O)cc2Oc2cc(O)ccc21)C(=O)NCC(=O)N[C@@H](C)C(=O)N[C@@H](CCC(N)=O)C(=O)N[C@@H](CC(C)C)C(=O)N[C@@H](CCCNC(=N)N)C(=O)N[C@@H](CCCNC(=N)N)C(=O)N[C@@H](CCSC)C(=O)N[C@@H](C)C(=O)N[C@@H](CC(=O)O)C(=O)N[C@@H](CC(=O)O)C(=O)N[C@@H](CC(C)C)C(=O)N[C@@H](CC(N)=O)C(=O)N[C@@H](C)C(=O)O` [PUMA], the “cytochrome c release by peptide alone” value in the assay with mouse liver mitochondria was “none of the sensitizer BH3 peptides by themselves can induce cytochrome c release significantly above background”. For the same compound, the “mitochondrial sensitivity to BH3 peptide” value in the assay with SU-DHL6 is given as “strong”; with SU-DHL8 it was “limited response”. In addition, the cytochrome c release entry is “capable of inducing near total cytochrome c release” with leukemic mitochondria and “induce cytochrome c release” with CLL mitochondria.
In the case of “BH3 domain peptide of murine NOXA, AELPPEFAAQLRKIGDKVYC (SEQ ID NO: 6) [NOXA A]”, the “displacement of BIM BH3 from MCL-1” value with GST-MCL-1 is listed as “efficiently displaces BIM from MCL-1”. In addition, the “cytochrome c release by peptide alone” value in the assay on mouse liver mitochondria is “none of the sensitizer BH3 peptides by themselves can induce cytochrome c release significantly above background”. Further, the “mitochondrial sensitivity to BH3 peptide” value in the assay with SU-DHL6 was “weaker, but definite, response”. Also, the cytochrome c release entry in the assay with CLL mitochondria is listed as “do not”. For the same compound, the “percent killing by Annexin-V staining” value in [2] is given as “significantly greater than that with BAD”.
On to `CSCC[C@H](NC(=O)[C@H](CCCNC(=N)N)NC(=O)[C@H](CCCNC(=N)N)NC(=O)[C@H](CC(C)C)NC(=O)[C@H](CCC(=O)O)NC(=O)[C@H](CCCNC(=N)N)NC(=O)CNC(=O)[C@H](Cc1ccc(O)cc1)NC(=O)[C@H](CCCNC(=N)N)NC(=O)[C@H](CCC(N)=O)NC(=O)[C@H](C)NC(=O)[C@H](C)NC(=O)[C@H](Cc1c[nH]c2ccccc12)NC(=O)[C@H](CC(C)C)NC(=O)CCCCCNC(=S)Nc1ccc2c(c1)C(=O)OC21c2ccc(O)cc2Oc2cc(O)ccc21)C(=O)N[C@@H](CO)C(=O)N[C@@H](CC(=O)O)C(=O)N[C@@H](CCC(=O)O)C(=O)N[C@@H](Cc1ccccc1)C(=O)N[C@@H](CCC(=O)O)C(=O)NCC(=O)N[C@@H](CO)C(=O)N[C@@H](Cc1ccccc1)C(=O)N[C@@H](CCCCN)C(=O)NCC(=O)N[C@@H](CC(C)C)C(=O)O` [BAD], for which the “displacement of BIM BH3 from BCL-2” value at GST-BCL-2 is reported as “efficiently displaces BIM BH3 from BCL-2”. For the same compound, the “cytochrome c release by peptide alone” value in the assay on mouse liver mitochondria is reported as “none of the sensitizer BH3 peptides by themselves can induce cytochrome c release significantly above background”. For the same compound, the “mitochondrial sensitivity to BH3 peptide” value with SU-DHL6 is reported as “weaker, but definite, response”. In addition, the cytochrome c release result is reported as “capable of inducing near total cytochrome c release” in the assay on leukemic mitochondria and “induce cytochrome c release” in the assay on CLL mitochondria. In the assay with BAX, the BAX oligomerization result was “results in BAX oligomerization”.
